Test [1] concerns ripe ‘Red Delicious’ apple fruit. As to the kind of experiment: Precursor (isoleucine, α-ketoacid) content of ripe apple peel via derivatization and GCMS, time course. The format is in vivo, Malus x domestica Borkh. The following applies: 1 mM rimsulfuron. As for the experimental part:
(§1) ‘Red Delicious’ apple fruit held in refrigerated air for 5 months (see above) plus 1 day at 22° C. and at an advanced ripeness stage (‘ripe’) were treated with rimsulfuron (1 mM) with 0.2% Tween 20 on day 0 of the study and for the next three consecutive days as above described. The fruit were evaluated daily for volatile emissions (see below) for eight days. On days 0, 2, 4, and 7, representative treated and untreated fruit were selected for tissue collection for metabolite analysis (see below). On day 7, samples of fruit peel were fed, as described above, with water or 20 mM isoleucine or α-keto-β-methylvalerate.
To simultaneously quantify branched-chain α-ketoacids and amino acids, 100 mg of ground frozen tissue was extracted in 2 mL of 1:1 acetonitrile: water containing 13 μM U-^13C, ^15N labeled amino acids (MilliporeSigma) as internal standard for 15 min in a 65° C. water bath. […]
One microliter of derivatized sample was analyzed with a GC (Agilent 6890) coupled to a time-of-flight MS (Pegasus II, LECO). […]
Compounds were identified by retention time and spectra of derivatized authenticated standards. Quantification was performed by comparison of the ratios of peak areas of metabolites to labeled internal standards. […] Calibration standards consisted of equimolar mixtures of the analyzed compounds that mimicked 15-0.15 nmoles of analyte in the final derivatized sample. […]

In a further test the test system is apple peel tissues. As to the kind of experiment: Labeled (1,2-13C2) acetate and methanol feeding of excised apple peel. Further details: species or system Malus x domestica Borkh. The following applies: for reduction of methyl 2-methylbutanoate content: 1 mM rimsulfuron. As for the experimental part: Acetate feedings were likewise performed with excised peel tissues in 22-mL glass vials and 20 μL of treatment solution. ‘Gala’ fruit were fed with 10 mM methanol, 10 mM acetate (unlabeled or 1,2-^13C2) pH 7 balanced with KOH, 0.05% Tween 20, and 0.5 mM rimsulfuron if appropriate. These concentrations were doubled for ‘Empire’ and ‘Jonagold’ fruit.
Headspace volatiles from small tissue samples incubated in 22 mL vials were adsorbed for 30 s using a solid-phase micro extraction (SPME) fiber (65 μm PDMS-DVB; Supelco Analytical). The SPME fiber was then directly desorbed for 1 min in the injection port of a gas chromatograph (GC; HP-6890, Hewlett-Packard) coupled to a time-of-flight mass spectrometer (MS; Pegasus II, LECO). Whole fruits and banana slices were incubated for 20 min at room temperature (22° C.) in 1-L sealed Teflon jars before a 15-s, or 3-min adsorption and 1- or 2-min desorption. Adsorption times were adjusted to ensure instrument responses were in the linear range. All desorbed volatiles were cryofocused at the beginning of the column by immersing said region of the column in liquid nitrogen. After the desorption period, the run was initiated and the liquid nitrogen removed.
The conditions of the system were as follows. Injection port: 200° C., splitless, ultra-purified helium (99.999%) carrier gas, front inlet flow 1.5 mL·min^−1 constant, 10 mL·min^−1 purge flow, 11.5 mL·min^−1 total flow. Oven: initial temperature 40° C. for 0 min, ramped by 43° C.·min^−1 to 185° C. for 0 min. Column: HP-5 MS, 30 m×0.25 mm i.d., 0.25 μm film thickness (Agilent). Transfer line temperature 225° C. MS: Electron ionization (−70 eV), ion source temperature 200° C., solvent delay 50 sec, m/z range 29 to 400, detector voltage 1500 V, data collection rate 20 Hz.

Test [2] relates to ripe ‘Red Delicious’ apple fruit. Nature of the test: Headspace 2-methylbutanoate esters of ripe apple fruit, time course. It counts as in vivo, Malus x domestica Borkh. The following applies: within three days of treatment. As for the experimental part:
as §1
Headspace volatiles from small tissue samples incubated in 22 mL vials were adsorbed for 30 s using a solid-phase micro extraction (SPME) fiber (65 μm PDMS-DVB; Supelco Analytical). The SPME fiber was then directly desorbed for 1 min in the injection port of a gas chromatograph (GC; HP-6890, Hewlett-Packard) coupled to a time-of-flight mass spectrometer (MS; Pegasus II, LECO). […]
Compounds were identified by comparison of the retention time and mass spectrum against authenticated reference standards and spectra (National Institute of Standards and Technology Mass Spectral Search Program Version 2.0, 2001). Volatiles were quantified by calibration with a standard of 59 authenticated, high-purity compounds (Sigma-Aldrich Co. and Fluka Chemical) including the target compounds. […]

Turning to `CCS(=O)(=O)c1cccnc1S(=O)(=O)NC(=O)Nc1nc(OC)cc(OC)n1` [rimsulfuron, N-((4,6-dimethoxypyrimidin-2-yl)aminocarbonyl)-3-(ethylsulfonyl)-2-pyridinesulfonamide], in test [1], the “isoleucine content, plateau, of control levels” value was 29.1% and the “α-keto-β-methylvalerate content, plateau, of control levels” value amounted to 51.1%. In addition, the “M+1 and M+2 methyl pentanoate isotopologs collectively more enriched after treatment” value with apple peel tissues (Empire and Jonagold, on average, 1,2-13C2 acetate) is reported as 4.28 fold. In addition, the “reduction of methyl 2-methylbutanoate content” value with apple peel tissues (Empire peel fed methanol and acetate) came to 99.4%. Further, the “reduction of methyl 2-methylbutanoate content” value in the test with apple peel tissues (Jonagold peel fed methanol and acetate) stood at 100%. In the test on apple peel tissues (Jonagold, 1,2-13C2 acetate), the “enrichment of M+1 isotopolog of methyl hexanoate” value is listed as “slightly more enrichment than controls”. In addition, the “headspace content of 2-methylbutanoate esters, of control fruits” value in test [2] turned out to be 15.0%.

The values above are taken from patent US20250382556A1, “MODULATION OF THE BRANCHED-CHAIN METABOLITE CONTENT OF FRUITS AND VEGETABLES” (BOARD OF TRUSTEES OF MICHIGAN STATE UNIVERSITY, priority 2024, published 2025).
